From US11564913B2, “Compositions and methods for treating cancer” (Children's Hospital Medical Center, priority 2019, dated 2023) come the findings set out here.

Experiment [1] concerns Rac1Δ/Δ+Rac2−/− murine leukemic cells expressing p190-BCR-ABL. Kind of experiment: Clonogenic ability of Rac-deficient leukemic cells. It is filed as cell-based. The following applies: 1 μM. The method, then: FIG. 13: IODVA1 decreases Rac activation and signaling. (A) Ba/F3 cells expressing p190-BCR-ABL1 were treated with IODVA1 (3 μM) as indicated and levels of active Rac (Rac-GTP) were assessed by pull-down using GST-PAK-GBD, followed by immunoblotting (upper panel) and densitometric quantification (lower panel). (B) Flow-cytometry analysis of pJNK, pS6, p4EBP, pPAK1, and pAKT of Ba/F3 cells expressing Mieg3 empty vector (light and dark blue) or p190-BCR-ABL1 (light and dark salmon) and treated with vehicle control or IODVA1 (3 μM) for 30 min. (C) Representative histogram data of the cell cycle analysis of Ba/F3 cells expressing p190-BCR-ABL and treated with vehicle control or IODVA1 (1, 3, and 10 μM) for 20 h. (D) Quantification of the average number of colonies of bone marrow wild-type (black) and Rac1^Δ/Δ+Rac2^−/− (red) p190-BCR-ABL1 leukemic cells treated with vehicle control or IODVA1 (IO1, 1 μM). ns—not significant, * p<0.05, ** p<0.01, *** p<0.001. […] (G) Ba/F3 cells expressing p190-BCR-ABL1 were treated with IODVA1 (3 μM) and levels of active Cdc42 (Cdc42-GTP) and Rho (Rho-GTP) were assessed by pull-down at the indicated times using GST-PAK-GBD and GST-Rhotekin respectively, followed by immunoblotting (left panel) and densitometric quantification (right panel). […]
To confirm that IODVA1 targets Rac-dependent pathways, we assessed its effects in a Rac2-null background. […]

In experiment [2] the test system is p190- and p210-BCR-ABL1 expressing Ba/F3 cells. The experiment in a line: Cell survival, trypan blue exclusion. It is filed as cell-based, murine. To be noted: Mus musculus, BaF3; read-out: half maximal effective concentration (EC50), survival. The method, then:
(B) IODVA1-dependent survival curves of empty vector (red circles) or p190-BCR-ABL1 (black circles) expressing Ba/F3 cells and of Nalm-1 cells. […] (C) p190-BCR-ABL1 (grey line) or Mieg3 (black line) expressing Ba/F3 cells were allowed to grow for 1 day, treated with IODVA1 (IO1, 1 μM) for 1 day, and washed (black arrow). Cells were counted for 7 days using trypan blue exclusion. (D) Ba/F3 cells stably expressing p190-BCR-ABL1 were subjected to colony formation assay in soft agar (0.25% Noble Agar in RPMI/FBS/IL-3) in the presence of DMSO or IODVA1 (1 or 10 μM). Colonies were allowed to form for 10 days then stained with iodonitrotetrazolium (1 mg/mL). […] (E) Leukemic burden (%) of treated mice before treatment (left upper panel) and at the indicated treatment time was analyzed by flow cytometry of bone marrow aspirates as population containing B220^+/CD43^+ pro-B cells. […]
IODVA1 specifically targets BCR-ABL B-ALL cells in vitro. […] We then assessed survival of p190-BCR-ABL-transformed CD34^+ cells in the presence of IODVA1 by trypan blue exclusion. […]
MDA-MB-231 cells were maintained in IMEM (Invitrogen) supplemented with 10% FBS, 1% penicillin/streptomycin, and 1% amphotericin B. B a/F3 cells were cultured in RPMI (GIBCO) supplemented with 10% FBS and IL-3 (10 ng/ml). […] Cell viability was assessed by trypan blue exclusion assay as previously described. […]

Turning to `OC1(c2ccccn2)N=C(Nc2nc3ccccc3[nH]2)N=C1c1ccccn1` (centres unmarked) [IODVA1, (Z)-2-((1H-benzo[d]imidazol-2-yl)imino)-4,5-di(pyridin-2-yl)-2,5-dihydro-1H-imidazol-5-ol], the “number of colonies formed” value in experiment [1] was “did not alter”. In experiment [2], the EC50 was found to be 380 nM.
